Biological target: T1, KCNQ2/3 channels (Homo sapiens, UniProt O43525+O43526)
T1 construct: expressed in transfected cells
Experiment: Fluorescence assay using a voltage sensitive dye (fluorimetry)
Format: cell-based
Conditions: CHO-K1 cells expressing KCNQ2/3; for Emax: CHO-K1, plateau effect relative to saturated retigabine (50 μM) = 100%, negative values = antagonistic, read-out: Fluorimetry % efficacy (retigabine = 100%); for EC50: IC50 where % efficacy is negative, read-out: Fluorimetry EC50/IC50

T1 sequence (O43526 whole entry): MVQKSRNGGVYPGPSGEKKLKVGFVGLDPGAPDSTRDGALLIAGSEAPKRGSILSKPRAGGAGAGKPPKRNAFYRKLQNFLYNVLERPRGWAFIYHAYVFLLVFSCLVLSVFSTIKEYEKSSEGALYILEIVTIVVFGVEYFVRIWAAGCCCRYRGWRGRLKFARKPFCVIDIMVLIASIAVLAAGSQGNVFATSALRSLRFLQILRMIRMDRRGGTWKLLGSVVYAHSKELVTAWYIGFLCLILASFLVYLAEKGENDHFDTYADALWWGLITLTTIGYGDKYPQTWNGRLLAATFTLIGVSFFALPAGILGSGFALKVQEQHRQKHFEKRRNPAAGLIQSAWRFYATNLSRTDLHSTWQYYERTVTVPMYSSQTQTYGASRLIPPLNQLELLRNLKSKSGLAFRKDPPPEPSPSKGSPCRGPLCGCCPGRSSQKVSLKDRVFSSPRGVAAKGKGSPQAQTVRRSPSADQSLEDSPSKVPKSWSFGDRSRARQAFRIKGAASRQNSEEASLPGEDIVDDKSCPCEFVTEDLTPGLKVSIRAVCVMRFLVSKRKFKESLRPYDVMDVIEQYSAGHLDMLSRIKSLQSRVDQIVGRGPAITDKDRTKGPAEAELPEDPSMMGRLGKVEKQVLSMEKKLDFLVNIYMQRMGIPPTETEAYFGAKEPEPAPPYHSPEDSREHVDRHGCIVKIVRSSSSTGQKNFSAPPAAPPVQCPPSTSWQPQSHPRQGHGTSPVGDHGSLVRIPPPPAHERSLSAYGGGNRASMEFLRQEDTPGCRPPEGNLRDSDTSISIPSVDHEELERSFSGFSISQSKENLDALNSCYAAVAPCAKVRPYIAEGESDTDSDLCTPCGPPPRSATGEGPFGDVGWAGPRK
T1 sequence (O43525 whole entry): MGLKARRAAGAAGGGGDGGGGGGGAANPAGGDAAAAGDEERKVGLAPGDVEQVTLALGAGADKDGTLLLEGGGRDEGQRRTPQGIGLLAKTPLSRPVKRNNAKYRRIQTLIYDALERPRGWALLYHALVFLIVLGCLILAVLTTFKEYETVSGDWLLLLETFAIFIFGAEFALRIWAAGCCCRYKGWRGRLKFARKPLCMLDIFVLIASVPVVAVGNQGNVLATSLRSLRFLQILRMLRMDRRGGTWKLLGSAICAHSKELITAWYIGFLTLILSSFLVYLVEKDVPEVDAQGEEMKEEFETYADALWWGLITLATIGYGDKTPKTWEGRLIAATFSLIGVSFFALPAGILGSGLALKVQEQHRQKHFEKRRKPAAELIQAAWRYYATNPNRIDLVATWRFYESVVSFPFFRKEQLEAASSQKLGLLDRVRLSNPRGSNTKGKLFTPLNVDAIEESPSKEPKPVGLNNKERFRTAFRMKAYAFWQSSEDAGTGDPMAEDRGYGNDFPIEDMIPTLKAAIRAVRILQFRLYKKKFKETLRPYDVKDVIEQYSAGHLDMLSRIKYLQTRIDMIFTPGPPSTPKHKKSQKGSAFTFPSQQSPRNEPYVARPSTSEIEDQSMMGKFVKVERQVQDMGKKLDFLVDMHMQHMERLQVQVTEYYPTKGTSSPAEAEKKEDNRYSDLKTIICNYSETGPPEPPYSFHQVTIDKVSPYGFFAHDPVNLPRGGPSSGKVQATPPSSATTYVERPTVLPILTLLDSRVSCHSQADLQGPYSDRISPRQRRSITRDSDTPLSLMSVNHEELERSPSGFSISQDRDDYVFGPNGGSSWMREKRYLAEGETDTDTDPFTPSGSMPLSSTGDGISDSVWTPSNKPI

Row | Compound | Emax | EC50
1 | CCSc1nc(N(C)CCOC)cc(C)c1C(=O)NCCCC(C)(C)C [Example 211, N-(4,4-Dimethyl-pentyl)-2-ethylsulfanyl-6-(2-methoxy-ethyl-methyl-amino)-4-methyl-pyridine-3-carboxylic acid amide] | 225% | 143 nM
2 | CCSc1nc(N(C)CCCOC)cc(C)c1C(=O)NCCCC(C)(C)C [Example 212, N-(4,4-Dimethyl-pentyl)-2-ethylsulfanyl-6-(3-methoxy-propyl-methyl-amino)-4-methyl-pyridine-3-carboxylic acid amide] | 200% | 152 nM
3 | COc1nc(N2CCOC[C@H]2C)cc(C)c1C(=O)NCc1cccc(F)c1 [Example 214, N-[(3-Fluorophenyl)-methyl]-2-methoxy-4-methyl-6-[(3R)-3-methyl-morpholin-4-yl]-pyridine-3-carboxylic acid amide] | 194% | 224 nM
4 | COc1nc(N2CCOC[C@H]2C)cc(C)c1C(=O)NCc1ccc(Cl)cc1 [Example 215, N-[(4-Chlorophenyl)-methyl]-2-methoxy-4-methyl-6-[(3R)-3-methyl-morpholin-4-yl]-pyridine-3-carboxylic acid amide] | 191% | 147 nM
5 | CCC(C)c1nc(N2CCOCC2)cc(C)c1C(=O)NCc1cccc(F)c1 (centres unmarked) [Example 216, N-[(3-Fluorophenyl)-methyl]-4-methyl-2-(1-methyl-propyl)-6-morpholin-4-yl-pyridine-3-carboxylic acid amide] | 181% | 69 nM
6 | CCCCCCNC(=O)c1c(C)cc(N2CCOCC2)nc1SCC [Example 217, 2-Ethylsulfanyl-N-hexyl-4-methyl-6-morpholin-4-yl-pyridine-3-carboxylic acid amide] | 181% | 407 nM
7 | CCC(C)c1nc(N2CCOCC2)cc(C)c1C(=O)NCCCC(C)(C)C (centres unmarked) [Example 221, N-(4,4-Dimethyl-pentyl)-4-methyl-2-(1-methyl-propyl)-6-morpholin-4-yl-pyridine-3-carboxylic acid amide] | 259% | 22 nM
8 | CCSc1nc(N2CCOC[C@H]2C)cc(C)c1C(=O)NCc1ccc(F)c(F)c1 [Example 225, N-[(3,4-Difluoro-phenyl)-methyl]-2-ethylsulfanyl-4-methyl-6-[(3R)-3-methyl-morpholin-4-yl]-pyridine-3-carboxylic acid amide] | 173% | 71 nM
9 | COc1nc(N2CCOC[C@H]2C)cc(C)c1C(=O)NCc1ccc(F)c(F)c1 [Example 226, N-[(3,4-Difluoro-phenyl)-methyl]-2-methoxy-4-methyl-6-[(3R)-3-methyl-morpholin-4-yl]-pyridine-3-carboxylic acid amide] | 186% | 129 nM
10 | CCSc1nc(N2CCOCC2)cc(C)c1C(=O)NCCC(O)c1ccccc1 (centres unmarked) [Example 227, 2-Ethylsulfanyl-N-(3-hydroxy-3-phenyl-propyl)-4-methyl-6-morpholin-4-yl-pyridine-3-carboxylic acid amide] | 165% | 4190 nM
11 | CCSc1nc(N2CCOCC2)cc(C)c1C(=O)NCCCC(C)(C)CO [Example 230, 2-Ethylsulfanyl-N-(5-hydroxy-4,4-dimethyl-pentyl)-4-methyl-6-morpholin-4-yl-pyridine-3-carboxylic acid amide] | 131% | 12900 nM
12 | CCSc1nc(N2CCOCC2)cc(C)c1C(=O)NCc1cccc(S(C)(=O)=O)c1 [Example 231, 2-Ethylsulfanyl-4-methyl-N-[(3-methylsulfonyl-phenyl)-methyl]-6-morpholin-4-yl-pyridine-3-carboxylic acid amide] | 61% | 10400 nM
13 | CCSc1nc(N2CCc3nc(C(F)(F)F)ccc3C2)cc(C)c1C(=O)NCc1cccc(F)c1 [Example 232, 2-Ethylsulfanyl-N-[(3-fluorophenyl)-methyl]-4-methyl-6-[2-(trifluoromethyl)-5,6,7,8-tetrahydro-[1,6]naphthyridin-6-yl]-pyridine-3-carboxylic acid amide] | 131% | 112 nM
14 | CCSc1nc(N2CCOC[C@H]2C)cc(C)c1C(=O)NCCCC(F)(F)F [Example 235, 2-Ethylsulfanyl-4-methyl-6-[(3R)-3-methyl-morpholin-4-yl]-N-(4,4,4-trifluoro-butyl)-pyridine-3-carboxylic acid amide] | 235% | 196 nM
15 | CCSc1nc(N2CCOC[C@H]2C)cc(C)c1C(=O)NCc1ccc(C(F)(F)F)cc1 [Example 237, 2-Ethylsulfanyl-4-methyl-6-[(3R)-3-methyl-morpholin-4-yl]-N-[[4-(trifluoromethyl)-phenyl]-methyl]-pyridine-3-carboxylic acid amide] | 148% | 56 nM
16 | COc1nc(N2CCOC[C@H]2C)cc(C)c1C(=O)NCc1ccc(C(F)(F)F)cc1 [Example 238, 2-Methoxy-4-methyl-6-[(3R)-3-methyl-morpholin-4-yl]-N-[[4-(trifluoromethyl)-phenyl]-methyl]pyridine-3-carboxylic acid amide] | 164% | 102 nM
17 | CCSc1nc(N2CC(COC)C2)cc(C)c1C(=O)NCc1cccc(F)c1 [Example 239, 2-Ethylsulfanyl-N-[(3-fluorophenyl)-methyl]-6-[3-(methoxymethyl)-azetidin-1-yl]-4-methyl-pyridine-3-carboxylic acid amide] | 125% | 1820 nM
18 | CCSc1nc(N2CC(C)OCC2C)cc(C)c1C(=O)NCc1cccc(F)c1 (centres unmarked) [Example 240, 6-(2,5-Dimethyl-morpholin-4-yl)-2-ethylsulfanyl-N-[(3-fluorophenyl)-methyl]-4-methyl-pyridine-3-carboxylic acid amide] | 174% | 394 nM

Further compounds by falling EC50, results first:

Row | Emax | EC50 | Compound
19 | 56% | 7310 nM | CCSc1nc(N2CCC3(COC3)C2)cc(C)c1C(=O)NCc1cccc(F)c1 [Example 222, 2-Ethylsulfanyl-N-[(3-fluorophenyl)-methyl]-4-methyl-6-(2-oxa-6-azaspiro[3.4]octan-6-yl)-pyridine-3-carboxylic acid amide]
20 | 137% | 3660 nM | CCSc1nc(N2CCO[C@@H](COC)C2)cc(C)c1C(=O)NCc1cccc(F)c1 [Example 223, 2-Ethylsulfanyl-N-[(3-fluorophenyl)-methyl]-6-[(2R)-2-(methoxymethyl)-morpholin-4-yl]-4-methyl-pyridine-3-carboxylic acid amide]
21 | 180% | 2450 nM | CCSc1nc(N2CCOCC2)cc(C)c1C(=O)NCC(O)CC(C)C (centres unmarked) [Example 228, 2-Ethylsulfanyl-N-(2-hydroxy-4-methyl-pentyl)-4-methyl-6-morpholin-4-yl-pyridine-3-carboxylic acid amide]
22 | 132% | 719 nM | CCSc1nc(N2CCOC(CCOC)C2)cc(C)c1C(=O)NCc1cccc(F)c1 (centres unmarked) [Example 229, 2-Ethylsulfanyl-N-[(3-fluorophenyl)-methyl]-6-[2-(2-methoxy-ethyl)-morpholin-4-yl]-4-methyl-pyridine-3-carboxylic acid amide]
23 | 136% | 693 nM | CCSc1nc(N2CCO[C@H](COC)C2)cc(C)c1C(=O)NCc1cccc(F)c1 [Example 224, 2-Ethylsulfanyl-N-[(3-fluorophenyl)-methyl]-6-[(2S)-2-(methoxymethyl)-morpholin-4-yl]-4-methyl-pyridine-3-carboxylic acid amide]
24 | 166% | 682 nM | Cc1cc(N2CCOCC2)nc(C(C)(C)C)c1C(=O)NCCCC(C)(C)C [Example 220, 2-tert-Butyl-N-(4,4-dimethyl-pentyl)-4-methyl-6-morpholin-4-yl-pyridine-3-carboxylic acid amide]
25 | 160% | 558 nM | Cc1cc(N2CCOCC2)nc(N(C)C)c1C(=O)NCc1ccc(C(F)(F)F)cc1 [Example 241, 2-Dimethylamino-4-methyl-6-morpholin-4-yl-N-[[4-(trifluoromethyl)-phenyl]-methyl]-pyridine-3-carboxylic acid amide]
26 | 227% | 469 nM | COc1nc(N2CCOC[C@H]2C)cc(C)c1C(=O)NCCCC(F)(F)F [Example 236, 2-Methoxy-4-methyl-6-[(3R)-3-methyl-morpholin-4-yl]-N-(4,4,4-trifluoro-butyl)-pyridine-3-carboxylic acid amide]
27 | 194% | 272 nM | CCSc1nc(N(C)C2CCOC2)cc(C)c1C(=O)NCCCC(C)(C)C (centres unmarked) [Example 218, N-(4,4-Dimethyl-pentyl)-2-ethylsulfanyl-4-methyl-6-(methyl-tetrahydro-furan-3-yl-amino)-pyridine-3-carboxylic acid amide]
28 | 195% | 124 nM | COc1nc(N2CCOC[C@H]2C)cc(C)c1C(=O)NCc1cc(F)cc(F)c1 [Example 234, N-[(3,5-Difluoro-phenyl)-methyl]-2-methoxy-4-methyl-6-[(3R)-3-methyl-morpholin-4-yl]-pyridine-3-carboxylic acid amide]
29 | 212% | 91 nM | CCSc1nc(N2CCOC(C)C2)cc(C)c1C(=O)NCCCC(C)(C)C (centres unmarked) [Example 219, N-(4,4-Dimethyl-pentyl)-2-ethylsulfanyl-4-methyl-6-(2-methyl-morpholin-4-yl)-pyridine-3-carboxylic acid amide]
30 | 196% | 70 nM | CCSc1nc(N2CCOC[C@H]2C)cc(C)c1C(=O)NCc1cc(F)cc(F)c1 [Example 233, N-[(3,5-Difluoro-phenyl)-methyl]-2-ethylsulfanyl-4-methyl-6-[(3R)-3-methyl-morpholin-4-yl]-pyridine-3-carboxylic acid amide]
31 | 131% | 49 nM | CCCC1COCCN1c1cc(C)c(C(=O)NCc2cccc(F)c2)c(SCC)n1 (centres unmarked) [Example 213, 2-Ethylsulfanyl-N-[(3-fluorophenyl)-methyl]-4-methyl-6-(3-propyl-morpholin-4-yl)-pyridine-3-carboxylic acid amide]

Source: patent US9168259B2 (GRÜNENTHAL GMBH, priority 2010, dated 2015)
